Assay results from patent publication US7582786B2, “Synthetic catalytic free radical scavengers useful as antioxidants for prevention and therapy of disease” (Eukarion Inc., priority 1996, dated 2009).

Assays:
[1] = SOD activity, xanthine/xanthine oxidase with cytochrome C as acceptor (Example 2); type: biochemical; details: for SOD: relative to C7 (C7 = 100)
Procedure, shortened: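 Superoxide was generated by 120 µM xanthine and 0.2 U/ml xanthine oxidase in 50 mM sodium phosphate pH 7.8 at 27 °C, with salen manganese compounds at ≥4 concentrations in duplicate.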

[2] = Catalase activity, conversion of H2O2 to oxygen, polarographic oxygen electrode (Example 2); type: biochemical
Procedure, shortened: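 Clark-type oxygen electrode at 25 °C in 50 mM sodium phosphate pH 8.1, 0.9% NaCl, with 10 μM salen-manganese complex and 10 mM H2O2. Initial rates from slope of first ~5 s, corrected for H2O2-alone rate; endpoint O2 as maximal minus pre-substrate baseline.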

[3] = Peroxidase activity, H2O2-dependent oxidation of ABTS (Example 2); type: biochemical; details: for Peroxidase rate: 10 μM salen manganese complex, 0.2 mM H2O2; for Peroxidase: relative to C7 (C7 = 100)
Procedure, shortened: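 ABTS oxidation by salen manganese complex (10 μM) with 0.2 mM H2O2 in 50 mM sodium phosphate pH 8.1 (or pH 6.0/7.1 where indicated), 0.9% NaCl, 0.5 mM ABTS, 27±0.2 °C. Oxidized ABTS read spectrophotometrically at 740 or 500 nm and quantified from Δε740 20,300 or Δε500 3400 M^−1cm^−1.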

[4] = tested on: brain homogenates; experiment: Iron-induced lipid peroxidation in brain homogenates (MDA); type: biochemical, rat
Method: Lipid peroxidation was induced by incubating a mixture consisting of 0.25 ml homogenate, 0.25 ml ASCF with test compounds, and 10 μM FeCl2 for 1 hr at 35° C. under an atmosphere equilibrated with O2:CO2(95:5). Following the incubation, 0.1 ml of the sample was extracted with trichloroacetic acid and analyzed for thiobarbituric acid reactive material as described previously, using authentic malonyldialdehyde (MDA) as a standard.

[5] = Peroxidase activity with t-BHP as substrate, ABTS oxidation; type: biochemical
Method: Peroxidase activity was assayed by monitoring the hydrogen peroxide-dependent oxidation of 2,2′-azino-bis(3-ethylbenzthiazoline-6) sulfonic acid (ABTS) spectrophotometrically. Standard assay mixtures consisted of 50 mM sodium phosphate, pH 8.1, 0.9% sodium chloride, 0.5 mM ABTS, and H2O2 and salen manganese complex as indicated. Where indicated, 50 mM sodium phosphate buffers of pH 6.0 or pH 7.1 were substituted. Assays were conducted at 27±0.2° C. ABTS oxidation was monitored at 740 or 500 nm to eliminate interference by the salen manganese complexes, many of which absorb in the vicinity of the λmax of oxidized ABTS, and to avoid absorbance values that exceeded the linear range of the spectrophotometer. The amount of oxidized ABTS was estimated using an Δε740 of 20,300 M^−1cm^−1 or an Δε500 of 3400 M^−1cm^−1 calculated based upon the published molar extinction coefficient oat 405 nm (36,800).
(In comparison, horseradish peroxidase utilized t-BHP with an ABTS oxidation rate that was about 5.4% of the rate with H2O2).

[6] = 10 μM salen manganese complex, 10 mM H2O2

Structure (SMILES) | SOD [1] | catalase activity (in words) [2] | Catalase rate [2, 6] [μM O2/min] | Endpoint [2, 6] [maximal μM O2] | Catalase endpt. ([2]; relative to C7 (C7 = 100)) | Catalase rate ([2]; relative to C7 (C7 = 100)) | peroxidase activity (in words) [3] | Peroxidase rate [3] [μM ABTS oxidized/min] | Peroxidase [3] | MDA levels, percent of control ([4]; 1 μM) [%] | MDA levels, percent of control ([4]; 5 μM) [%] | MDA levels, percent of control ([4]; 10 μM) [%] | MDA levels, percent of control ([4]; 25 μM) [%] | also measured
[Cl][Mn]1[O]c2ccccc2C=NCCN=Cc2ccccc2[O]1 [Compound C7] | 100 | exhibits catalase activity | 148.6 ± 33.5 | 32.3 ± 1.2 | 100 | 100 | exhibits peroxidase activity | 20.0 ± 0.5 | 100 | 110 | 84 | 22 | 4 | SOD activity (in words) [1]: catalytic SOD activity; catalase turnovers completed ([2]; 10 μM C7, ~1 mM H2O2): no more than a single turnover; ABTS oxidized ([3]; 10 μM C7, 1 mM H2O2, pH 8.1): up to 88 μM; peroxidase turnovers ([3]; 10 μM C7, 1 mM H2O2, pH 8.1): over 8 turnovers; ABTS oxidation rate with t-BHP, percent of rate with H2O2 ([5]; 1 mM t-BHP): about 0.5%
COc1cccc2c1[O][Mn]([O]C(C)=O)[O]c1c(cccc1OC)C=NCCN=C2 [Compound C32] | 96 | about twice as fast as C7 | 295.0 ± 31.9 | 90.1 ± 2.6 | 319 | 188 | fastest peroxidases | 34.2 ± 1.5 | 203 | 104 | 35 | 13 | 8 | turnovers before the catalase reaction ceased ([2]; 10 μM complex, 10 mM H2O2): about 16 turnovers; peroxidase rate with t-BHP relative to C7 [5]: ~3 fold
COc1cc(OC)c2c(c1)[O][Mn]([O]C(C)=O)[O]c1cc(OC)cc(OC)c1C=NCCN=C2 [Compound C35] | 27 | much lower catalase activity | 36.0 ± 8.0 | 10.5 ± 3.0 | 41 | 25 | undetectable activity | −0.1 ± 0.1 | 0 | 82 | 5 | 4 | 3 | inhibition of lipid peroxidation (in words) [4]: very potent; peroxidase activity toward t-BHP, percent of C7 [5]: less than 2%
COc1cccc2c1[O][Mn]([Cl])[O]c1c(cccc1OC)C=NCCN=C2 [Compound C40] | 96 | higher rate |  |  | 272 | 155 | fastest peroxidases | 32.9 ± 0.2 | 203 |  |  |  |  | 
